Article PMC2248166, “Quantitative peptide binding motifs for 19 human and mouse MHC class I molecules derived using positional scanning combinatorial peptide libraries” (Immunome Research, 2008)
Where a SMILES comes first, the peptide text is derived from it.

Assays:
Experiment in all cases: biochemical
Type in all cases: binding
HLA A*3201 = HLA A*3201 (Homo sapiens, UniProt P04439, A270S/D101S/D185E/E176V/E277Q/F133L/G103R/G107R/G231S/H175R/I121M/I218V/I322F/K168Q/L105A/L300P/L318F/M331R/P208A/P217A/Q94H/R106L/R138Q/S129P/T104I/T323A/T345S/V100E/V321M/V358M)
HLA B*1501 = HLA B*1501 (Homo sapiens, UniProt P01889, A329T/A93T/A95T/C349S/D201E/D98Y/E187L/E204Q/E69M/E70A/K202T/N87E/Q94N/R155S/R180W/S121R/S35A/S48A/V306I/V36M/Y140S/Y91S)
HLA B*1503 = HLA B*1503 (Homo sapiens, UniProt P01889, A329T/A93T/A95T/C349S/D201E/D98Y/E187L/E204Q/K202T/N87E/Q94N/R155S/R180L/S121R/S35A/V306I/V36M/Y140S/Y91S)
HLA A*3001 = HLA A*3001 (Homo sapiens, UniProt P04439, D140H/D185E/E176W/F33S/G80R/H175R/K168Q/R138E/R41S)
Chain of HLA A*3001 (P04439 25-365 limits assumed, stated change not applied): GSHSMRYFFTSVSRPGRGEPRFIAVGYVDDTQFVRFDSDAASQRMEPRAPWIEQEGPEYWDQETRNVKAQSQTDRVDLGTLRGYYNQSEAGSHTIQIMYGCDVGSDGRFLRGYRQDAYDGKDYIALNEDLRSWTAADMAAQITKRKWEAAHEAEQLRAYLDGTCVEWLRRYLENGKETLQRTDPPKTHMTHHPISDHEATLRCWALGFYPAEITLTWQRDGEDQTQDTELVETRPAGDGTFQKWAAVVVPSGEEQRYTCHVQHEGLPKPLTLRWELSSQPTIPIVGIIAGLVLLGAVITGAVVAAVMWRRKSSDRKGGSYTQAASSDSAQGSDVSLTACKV

Compound	IC50 (HLA A*3201) [nM]	IC50 (HLA B*1501) [nM]	IC50 (HLA B*1503) [nM]	IC50 (HLA A*3001) [nM]
CC(C)C[C@H](NC(=O)[C@@H](N)C(C)C)C(=O)N[C@@H](Cc1ccccc1)C(=O)N[C@@H](CCC(=O)O)C(=O)N[C@H](C(=O)N[C@@H](Cc1ccccc1)C(=O)N[C@H](C(=O)N[C@H](C(=O)N[C@@H](Cc1ccccc1)C(=O)O)C(C)C)C(C)C)C(C)C [3102.0818] (H-VLFEVFVVF-OH)	7.8	2.9	4.9	–
CC[C@H](C)[C@H](NC(=O)[C@@H]1CCCN1C(=O)[C@@H](NC(=O)[C@H](CO)NC(=O)[C@H](CC(N)=O)NC(=O)[C@H](Cc1ccc(O)cc1)NC(=O)[C@H](CO)NC(=O)[C@H](CCC(N)=O)NC(=O)[C@@H](N)CCSC)C(C)C)C(=O)O [3102.0353] (H-MQSYNSVPI-OH)	2.5	1.6	0.73	–
CC[C@H](C)[C@H](NC(=O)[C@@H](N)CCC(N)=O)C(=O)N[C@H](C(=O)N[C@@H](C)C(=O)N[C@@H](Cc1ccc(O)cc1)C(=O)N[C@@H](Cc1ccccc1)C(=O)N[C@@H](CO)C(=O)N[C@@H](CCC(=O)O)C(=O)N[C@@H](Cc1ccccc1)C(=O)O)C(C)C [3102.0816] (H-QIVAYFSEF-OH)	70	1.4	7.9	–
CC[C@H](C)[C@H](NC(=O)[C@H](CCCCN)NC(=O)[C@H](CC(N)=O)NC(=O)[C@H](CO)NC(=O)[C@H](Cc1ccc(O)cc1)NC(=O)[C@H](CCCCN)NC(=O)[C@H](CC(C)C)NC(=O)[C@@H](NC(=O)[C@@H](N)CCCCN)[C@@H](C)O)C(=O)O [3102.0326] (H-KTLKYSNKI-OH)	1.9	124	–	38
CC[C@H](C)[C@H](N)C(=O)N[C@@H](C)C(=O)N[C@@H](CO)C(=O)N[C@H](C(=O)N[C@@H](CC(C)C)C(=O)N[C@H](C(=O)N[C@H](C(=O)N[C@H](C(=O)N[C@H](C(=O)O)[C@@H](C)CC)[C@@H](C)O)C(C)C)[C@@H](C)CC)[C@@H](C)O [3102.0358] (H-IASTLIVTI-OH)	74	156	–	10
CC[C@H](C)[C@H](NC(=O)[C@H](CC(N)=O)NC(=O)[C@H](Cc1ccccc1)NC(=O)[C@H](CCSC)NC(=O)[C@@H](N)CC(N)=O)C(=O)N[C@@H](CO)C(=O)N[C@@H](Cc1ccccc1)C(=O)N[C@@H](CCCNC(=N)N)C(=O)N[C@@H](Cc1ccccc1)C(=O)O [3102.0348] (H-NMFNISFRF-OH)	3.6	43	19	27
CC[C@H](C)[C@H](NC(=O)[C@@H](NC(=O)[C@@H](N)CCCCN)[C@@H](C)O)C(=O)N[C@@H](CC(N)=O)C(=O)N[C@@H](C)C(=O)N[C@@H](CC(C)C)C(=O)N[C@H](C(=O)N[C@@H](Cc1ccc(O)cc1)C(=O)N[C@@H](Cc1ccccc1)C(=O)O)C(C)C [3102.0359] (H-KTINALVYF-OH)	8.7	0.37	23	–
CC[C@H](C)[C@H](NC(=O)[C@@H](N)CCCCN)C(=O)N[C@@H](Cc1ccc(O)cc1)C(=O)N[C@@H](CC(N)=O)C(=O)N[C@H](C(=O)N[C@H](C(=O)N[C@@H](CC(N)=O)C(=O)N1CCC[C@H]1C(=O)N[C@@H](Cc1ccccc1)C(=O)O)[C@@H](C)O)C(C)C [3102.1223] (H-KIYNVTNPF-OH)	4.3	2.7	7.5	–
CC(C)C[C@H](NC(=O)[C@H](C)N)C(=O)N[C@@H](CC(C)C)C(=O)N[C@@H](CCC(=O)O)C(=O)N[C@@H](CC(C)C)C(=O)N[C@@H](Cc1ccccc1)C(=O)N[C@@H](CC(N)=O)C(=O)N[C@@H](C)C(=O)N[C@@H](Cc1ccccc1)C(=O)O [3102.0961] (H-ALLELFNAF-OH)	166	2.5	0.24	–
CC[C@H](C)[C@H](NC(=O)[C@@H](N)CCCCN)C(=O)NCC(=O)N[C@@H](CCSC)C(=O)N[C@@H](Cc1ccccc1)C(=O)N[C@@H](CC(N)=O)C(=O)N[C@@H](CC(C)C)C(=O)N[C@H](C(=O)N[C@@H](Cc1ccccc1)C(=O)O)[C@@H](C)O [3102.0341] (H-KIGMFNLTF-OH)	0.27	0.21	13	–
CC[C@H](C)[C@H](NC(=O)[C@H](CC(C)C)NC(=O)[C@H](Cc1ccccc1)NC(=O)[C@@H](NC(=O)[C@H](CO)NC(=O)[C@H](Cc1ccc(O)cc1)NC(=O)[C@H](CC(C)C)NC(=O)[C@@H](N)CCCNC(=N)N)[C@@H](C)CC)C(=O)N[C@@H](Cc1ccccc1)C(=O)O [3102.1049] (H-RLYSIFLIF-OH)	6.9	3.4	0.16	–
CSCC[C@H](NC(=O)[C@@H](N)Cc1c[nH]cn1)C(=O)N[C@@H](C)C(=O)N[C@@H](Cc1ccc(O)cc1)C(=O)N[C@@H](CO)C(=O)N[C@@H](Cc1ccccc1)C(=O)N[C@@H](CCC(N)=O)C(=O)N[C@H](C(=O)N[C@@H](Cc1ccccc1)C(=O)O)[C@@H](C)O [3102.1331] (H-HMAYSFQTF-OH)	16	0.25	0.28	–
CC[C@H](C)[C@H](NC(=O)[C@@H](NC(=O)[C@@H](NC(=O)[C@@H]1CCCN1C(=O)[C@H](CCCNC(=N)N)NC(=O)[C@H](Cc1ccccc1)NC(=O)[C@H](Cc1ccccc1)NC(=O)[C@@H](NC(=O)[C@@H](N)CCCCN)[C@@H](C)CC)[C@@H](C)O)[C@@H](C)O)C(=O)O [3102.0470] (H-KIFFRPTTI-OH)	1.1	93	–	17
CC(C)C[C@H](NC(=O)[C@@H](N)CCCNC(=N)N)C(=O)N[C@@H](Cc1ccccc1)C(=O)N[C@@H](Cc1ccc(O)cc1)C(=O)N[C@H](C(=O)N[C@@H](Cc1ccccc1)C(=O)N[C@@H](Cc1ccccc1)C(=O)N[C@@H](CO)C(=O)N[C@@H](Cc1ccc(O)cc1)C(=O)O)[C@@H](C)O [3102.0803] (H-RLFYTFFSY-OH)	0.19	0.37	–	–
CC[C@H](C)[C@H](NC(=O)[C@@H](NC(=O)[C@@H](N)CO)[C@@H](C)CC)C(=O)N[C@@H](CO)C(=O)N[C@@H](CC(C)C)C(=O)N[C@@H](Cc1ccccc1)C(=O)N[C@@H](Cc1ccc(O)cc1)C(=O)N[C@H](C(=O)N[C@@H](Cc1ccccc1)C(=O)O)[C@@H](C)O [3102.0919] (H-SIISLFYTF-OH)	5.7	1.4	–	–
CC[C@H](C)[C@H](NC(=O)[C@@H](NC(=O)[C@@H](N)CCCCN)[C@@H](C)O)C(=O)N[C@@H](Cc1ccc(O)cc1)C(=O)N[C@@H](C)C(=O)N[C@H](C(=O)N[C@@H](CC(=O)O)C(=O)N[C@@H](CO)C(=O)N[C@@H](Cc1ccccc1)C(=O)O)C(C)C [3102.0340] (H-KTIYAVDSF-OH)	6.8	4	–	–
CC[C@H](C)[C@H](NC(=O)[C@H](CO)NC(=O)[C@H](CC(N)=O)NC(=O)[C@H](CC(C)C)NC(=O)[C@@H](N)CO)C(=O)N[C@@H](Cc1ccccc1)C(=O)N[C@@H](CC(N)=O)C(=O)N[C@H](C(=O)N[C@@H](Cc1ccccc1)C(=O)O)[C@@H](C)O [3102.1238] (H-SLNSIFNTF-OH)	14	2.2	–	–
CC[C@H](C)[C@H](N)C(=O)N[C@H](C(=O)N[C@@H](CC(C)C)C(=O)N[C@H](C(=O)N[C@@H](CC(N)=O)C(=O)N[C@H](C(=O)N[C@H](C(=O)N[C@@H](CC(N)=O)C(=O)N[C@H](C(=O)O)[C@@H](C)CC)C(C)C)C(C)C)[C@@H](C)O)[C@@H](C)O [3102.0320] (H-ITLTNVVNI-OH)	77	12	22	35
CC[C@H](C)[C@H](NC(=O)[C@H](CO)NC(=O)[C@@H](N)CC(C)C)C(=O)N[C@@H](Cc1ccccc1)C(=O)N[C@@H](Cc1ccccc1)C(=O)N[C@@H](Cc1ccc(O)cc1)C(=O)N[C@@H](CO)C(=O)N[C@@H](CO)C(=O)N[C@@H](Cc1ccccc1)C(=O)O [3102.1177] (H-LSIFFYSSF-OH)	129	17	0.22	–
CC[C@H](C)[C@H](NC(=O)[C@@H](NC(=O)[C@@H](N)CC(C)C)[C@@H](C)O)C(=O)N[C@@H](C)C(=O)N[C@@H](CS)C(=O)N[C@@H](CCCNC(=N)N)C(=O)N[C@H](C(=O)N[C@@H](CO)C(=O)N[C@@H](CC(C)C)C(=O)O)C(C)C [3102.0376] (H-LTIACRVSL-OH)	96	76	–	–
CC(C)C[C@H](NC(=O)[C@@H](NC(=O)[C@@H](NC(=O)[C@H](CO)NC(=O)[C@H](CC(N)=O)NC(=O)[C@H](CCC(N)=O)NC(=O)[C@@H](N)CC(C)C)C(C)C)C(C)C)C(=O)N[C@@H](CCC(N)=O)C(=O)N[C@@H](Cc1ccccc1)C(=O)O [3102.1263] (H-LQNSVVLQF-OH)	7.3	1.5	6.2	–
CC[C@H](C)[C@H](NC(=O)[C@@H]1CCCN1C(=O)[C@H](CCC(=O)O)NC(=O)[C@H](CCC(=O)O)NC(=O)[C@H](CC(C)C)NC(=O)[C@H](Cc1ccc(O)cc1)NC(=O)[C@H](Cc1ccccc1)NC(=O)[C@H](CC(C)C)NC(=O)[C@@H](N)CCSC)C(=O)O [3102.0881] (H-MLFYLEEPI-OH)	2.5	45	–	–
CC(C)C[C@H](N)C(=O)N[C@@H](CO)C(=O)N[C@@H](Cc1ccc(O)cc1)C(=O)N[C@@H](Cc1ccc(O)cc1)C(=O)N[C@H](C(=O)N[C@H](C(=O)N[C@@H](Cc1ccc(O)cc1)C(=O)N[C@H](C(=O)N[C@@H](Cc1ccccc1)C(=O)O)C(C)C)C(C)C)C(C)C [3102.1098] (H-LSYYVVYVF-OH)	280	6.4	19	–
